Key:
[1] = mn = molality of the nth substance listed, in mol/kg; conditions: 101 kPa, Liquid; for speed of sound: Sing-around technique in a fixed-path interferometer; for mass density: Vibrating tube method
[2] = osmotic coefficient (dimensionless); mn = molality of the nth substance listed, in mol/kg; conditions: 323.15 K, Liquid, Knauer Osmometer

CCCCn1cc[n+](C)c1.O=S(=O)([O-])C(F)(F)F [1-butyl-3-methylimidazolium trifluoromethanesulfonate] + CC(C)O
[1]
Conditions	mass density, 293.15 K [kg/m3]	mass density, 308.15 K [kg/m3]	mass density, 323.15 K [kg/m3]	speed of sound, 293.15 K [m/s]	speed of sound, 308.15 K [m/s]	speed of sound, 323.15 K [m/s]
m1 = 0.049	789.81	777.07	763.51	1158.3	1106.4	1053.4
m1 = 0.1	794.52	781.8	768.29	1159.5	1108	1055.5
m1 = 0.152	799.18	786.48	772.99	1160.9	1109.6	1057.4
m1 = 0.207	804.09	791.39	777.93	1162.6	1111.2	1059.3
m1 = 0.254	808.1	795.41	781.98	1163.3	1112.5	1060.8
m1 = 0.51	828.98	816.33	803.01	1168.6	1119.1	1068.8
m1 = 0.754	847.24	834.61	821.37	1173.2	1124.8	1075.6
m1 = 1.006	864.73	852.1	838.92	1178.4	1130.5	1082.3
m1 = 1.525	896.77	884.17	871.1	1188.1	1142	1095.6
m1 = 1.758	910.13	897.53	884.5	1192.5	1147	1101.3
m1 = 2.05	925.34	912.77	899.8	1197.6	1153.1	1108.2
m1 = 2.526	947.75	935.19	922.28	1206	1162.5	1118.6
m1 = 3.011	967.97	955.42	942.57	1214.3	1171.5	1128.5

[2]
Conditions	osmotic coefficient
m1 = 0.0255	0.991
m1 = 0.0473	0.911
m1 = 0.1132	0.844
m1 = 0.1803	0.765
m1 = 0.2949	0.686
m1 = 0.398	0.624
m1 = 0.5052	0.588
m1 = 0.8092	0.518
m1 = 1.205	0.461
m1 = 1.615	0.412
m1 = 2.031	0.391
m1 = 2.42	0.381
m1 = 2.829	0.366
m1 = 3.326	0.356

— the NIST ThermoML archive (doi:10.1016/j.jct.2013.01.032)
